Test system: LDLR-/- mice
Assay: Atheroma formation in high cholesterol diet-fed LDLR-/- mice
Type: in vivo, mouse
Conditions: oral 10 mg/kg a day, 7th to 17th week of high cholesterol diet, vs solvent
Source text: To assess the impact of PKD2 on cholesterol levels as well as on atheroma formation, we utilized a mouse genetic model of atheroma formation and mice carrying inactivatory mutation in the sequence encoding PKD2 (Matthews et al, 2010). Mice deficient for Low-density lipoprotein receptor (LDLR), develop hyperlipidemia (elevated levels of cholesterol) and deposit a significant amount of atherosclerotic plaques in the vessels especially when fed with a high cholesterol diet (containing 1.25% of the cholesterol in the food) (Ishibashi et al, 1993). We crossed mice deficient for LDLR (LDLR−/−) and mice carrying inactivatory mutation of PKD2 (PKD^ki/ki) to generate double mutant mice (LDLR−/− PKD^ki/ki) and corresponding control animals, LDLR−/−. These animals were fed for 18 weeks with high cholesterol diet. […] The relative plaque area was also quantified.
To test if inhibition of PKD by CRT0066101 compound is also sufficient to reduce atherosclerotic plaque formation, we also utilized high cholesterol diet-fed LDLR−/− mice as a model. […] After the 17th week of the experiment, mice were sacrificed and lipid levels in the blood, as well as the amount of atherosclerotic plaques, were assessed as described for the genetic model above.

For CC[C@@H](N)CNc1ccnc(-c2cc(-c3cnn(C)c3)ccc2O)n1 [CRT0066101], the blood cholesterol levels (FIG. 10A) was “reduction in cholesterol levels” and the “size of atherosclerotic plaques (relative area in aorta, OilRedO)” value (FIG. 10B-C) was “smaller size of atherosclerotic plaques”.

Reference: patent US20240082260A1, “INHIBITOR OF PROTEIN KINASE D FOR USE IN PREVENTION OR TREATMENT OF HYPERLIPIDEMIA” (priority 2021, published 2024)
